pIC50: −log10 of the molar value.
Key:
[1] = molecular target: Histone deacetylase; test: Inhibition of HDAC in human HeLa cell extract using Boc-Lys (acetyl)-AMC as substrate incubated for 10 mins prior to substrate addition measured after 30 mins by fluorescence assay; assay type: protein assay
[2] = Antiproliferative activity against human U266 cells after 48 hrs by MTT assay; assay type: functional, cell-based; details: U-266, 48 h
[3] = Antiproliferative activity against human U937 cells after 48 hrs by MTT assay; assay type: functional, cell-based; details: U-937, 48 h
[4] = system: K562; test: Antiproliferative activity against human K562 cells after 48 hrs by MTT assay; assay type: functional, cell-based; details: K562, 48 h
[5] = system: HEL; test: Antiproliferative activity against human HEL cells after 48 hrs by MTT assay; assay type: functional, cell-based
[6] = Antiproliferative activity against human KG1 cells after 48 hrs by MTT assay; assay type: functional, cell-based; details: KG-1, 48 h
[7] = Antiproliferative activity against human HL60 cells after 48 hrs by MTT assay; assay type: functional, cell-based; details: HL-60, 48 h
[8] = system: MDA-MB-231; test: Antiproliferative activity against human MDA-MB-231 cells after 48 hrs by MTT assay; assay type: functional, cell-based; details: MDA-MB-231, 48 h
[9] = Antiproliferative activity against human PC3 cells after 48 hrs by MTT assay; assay type: functional, cell-based; details: PC-3, 48 h
[10] = system: MCF7; test: Antiproliferative activity against human MCF7 cells after 48 hrs by MTT assay; assay type: functional, cell-based; details: MCF7, 48 h
[11] = Antiproliferative activity against human HCT116 cells after 48 hrs by MTT assay; assay type: functional, cell-based; details: HCT-116, 48 h
[12] = system: A549; test: Antiproliferative activity against human A549 cells after 48 hrs by MTT assay; assay type: functional, cell-based; details: A549, 48 h
[13] = molecular target: Histone deacetylase 1 (Homo sapiens, UniProt Q13547); test: Inhibition of HDAC1 (unknown origin)
Histone deacetylase 1, sequence (Q13547 whole entry): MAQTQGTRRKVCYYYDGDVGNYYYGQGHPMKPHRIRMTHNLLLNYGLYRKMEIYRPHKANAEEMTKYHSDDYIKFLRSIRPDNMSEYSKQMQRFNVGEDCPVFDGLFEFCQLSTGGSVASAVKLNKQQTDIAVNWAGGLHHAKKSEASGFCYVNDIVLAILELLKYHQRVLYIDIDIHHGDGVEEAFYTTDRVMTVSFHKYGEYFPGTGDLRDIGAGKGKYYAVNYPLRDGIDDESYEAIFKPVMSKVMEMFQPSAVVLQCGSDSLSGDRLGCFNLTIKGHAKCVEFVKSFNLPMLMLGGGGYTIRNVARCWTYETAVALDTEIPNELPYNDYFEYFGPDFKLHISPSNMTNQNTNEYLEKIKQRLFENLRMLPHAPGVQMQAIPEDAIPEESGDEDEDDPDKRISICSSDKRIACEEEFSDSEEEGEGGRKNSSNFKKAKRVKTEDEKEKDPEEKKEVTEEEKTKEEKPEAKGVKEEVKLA

[14] = molecular target: Histone deacetylase 2 (Homo sapiens, UniProt Q92769); test: Inhibition of HDAC2 (unknown origin)
Histone deacetylase 2, sequence (Q92769 whole entry): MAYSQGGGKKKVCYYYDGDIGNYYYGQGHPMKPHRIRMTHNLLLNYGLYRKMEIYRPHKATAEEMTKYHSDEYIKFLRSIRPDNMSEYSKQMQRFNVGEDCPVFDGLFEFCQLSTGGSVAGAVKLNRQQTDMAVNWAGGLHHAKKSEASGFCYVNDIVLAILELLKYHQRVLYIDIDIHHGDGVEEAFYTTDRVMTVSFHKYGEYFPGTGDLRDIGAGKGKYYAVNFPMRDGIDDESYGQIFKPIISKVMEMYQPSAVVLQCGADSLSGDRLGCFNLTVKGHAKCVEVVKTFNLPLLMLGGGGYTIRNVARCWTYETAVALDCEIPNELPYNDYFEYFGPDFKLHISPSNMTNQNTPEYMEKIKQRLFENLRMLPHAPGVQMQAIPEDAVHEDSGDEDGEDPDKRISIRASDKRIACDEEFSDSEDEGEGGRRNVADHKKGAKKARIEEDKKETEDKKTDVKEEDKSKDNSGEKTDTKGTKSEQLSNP

[15] = molecular target: Histone deacetylase 3 (Homo sapiens, UniProt O15379); test: Inhibition of HDAC3 (unknown origin)
Histone deacetylase 3, sequence (O15379 whole entry): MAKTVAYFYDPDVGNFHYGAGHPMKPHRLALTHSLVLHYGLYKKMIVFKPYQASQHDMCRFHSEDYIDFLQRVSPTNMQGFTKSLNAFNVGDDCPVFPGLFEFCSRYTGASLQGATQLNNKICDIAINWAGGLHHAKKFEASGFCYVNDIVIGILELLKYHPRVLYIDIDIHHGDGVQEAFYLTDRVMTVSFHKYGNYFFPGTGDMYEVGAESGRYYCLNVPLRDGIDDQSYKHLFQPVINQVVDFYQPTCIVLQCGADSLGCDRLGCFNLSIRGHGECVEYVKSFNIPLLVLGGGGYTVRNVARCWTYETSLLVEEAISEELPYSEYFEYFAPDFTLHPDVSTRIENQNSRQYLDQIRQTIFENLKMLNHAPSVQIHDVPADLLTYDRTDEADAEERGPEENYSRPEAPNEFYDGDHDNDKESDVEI

[16] = molecular target: T1, Protein deacetylase HDAC6 (Homo sapiens, UniProt Q9UBN7); test: Inhibition of HDAC6 (unknown origin)
T1 sequence (Q9UBN7 whole entry): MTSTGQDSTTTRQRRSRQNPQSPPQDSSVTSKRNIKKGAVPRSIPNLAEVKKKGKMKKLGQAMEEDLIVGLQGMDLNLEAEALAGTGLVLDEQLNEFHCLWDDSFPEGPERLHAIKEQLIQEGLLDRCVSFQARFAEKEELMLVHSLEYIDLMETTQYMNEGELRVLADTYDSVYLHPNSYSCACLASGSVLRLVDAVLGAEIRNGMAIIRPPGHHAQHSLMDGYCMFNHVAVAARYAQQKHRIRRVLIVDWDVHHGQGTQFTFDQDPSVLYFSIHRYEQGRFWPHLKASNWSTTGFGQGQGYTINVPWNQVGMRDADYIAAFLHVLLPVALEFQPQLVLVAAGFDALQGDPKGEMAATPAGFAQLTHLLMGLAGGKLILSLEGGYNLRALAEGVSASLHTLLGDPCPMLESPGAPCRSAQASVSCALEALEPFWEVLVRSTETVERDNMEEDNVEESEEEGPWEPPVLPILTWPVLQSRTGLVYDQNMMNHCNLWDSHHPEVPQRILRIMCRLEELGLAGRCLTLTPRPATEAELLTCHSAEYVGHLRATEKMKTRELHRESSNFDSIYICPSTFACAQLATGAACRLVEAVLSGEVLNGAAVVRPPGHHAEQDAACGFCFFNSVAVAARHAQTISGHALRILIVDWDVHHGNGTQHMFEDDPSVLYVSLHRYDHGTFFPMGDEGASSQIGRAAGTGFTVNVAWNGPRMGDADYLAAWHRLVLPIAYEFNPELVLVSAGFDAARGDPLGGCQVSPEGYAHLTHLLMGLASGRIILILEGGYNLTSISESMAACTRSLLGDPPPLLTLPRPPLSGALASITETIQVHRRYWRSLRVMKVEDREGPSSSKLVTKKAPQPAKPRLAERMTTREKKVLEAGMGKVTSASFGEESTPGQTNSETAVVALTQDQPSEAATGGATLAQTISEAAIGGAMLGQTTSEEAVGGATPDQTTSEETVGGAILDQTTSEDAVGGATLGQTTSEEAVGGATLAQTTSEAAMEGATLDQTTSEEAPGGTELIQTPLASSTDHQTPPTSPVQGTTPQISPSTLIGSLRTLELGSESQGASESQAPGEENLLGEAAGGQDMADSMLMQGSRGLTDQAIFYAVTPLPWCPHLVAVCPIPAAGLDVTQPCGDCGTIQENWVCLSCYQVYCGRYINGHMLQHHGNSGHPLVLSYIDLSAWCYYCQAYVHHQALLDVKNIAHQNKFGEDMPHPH

[17] = system: U-937; test: Induction of apoptosis in human U937 cells assessed as early apoptotic cells at 1.5 uM after 24 hrs by annexin-V/propidium iodide staining-based flow cytometry (reference value: 3.81%); assay type: functional
[18] = system: U-937; test: Induction of apoptosis in human U937 cells assessed as late apoptotic cells at 1.5 uM after 24 hrs by annexin-V/propidium iodide staining-based flow cytometry (reference value: 2.77%); assay type: functional
[19] = system: U-937; test: Induction of apoptosis in human U937 cells assessed as dead cells at 1.5 uM after 24 hrs by annexin-V/propidium iodide staining-based flow cytometry (reference value: 0.95%); assay type: functional
[20] = system: U-937; test: Induction of apoptosis in human U937 cells assessed as viable cells at 1.5 uM after 24 hrs by annexin-V/propidium iodide staining-based flow cytometry (reference value: 92.47%); assay type: functional
[21] = system: U-937; test: Induction of apoptosis in human U937 cells assessed as apoptotic cells at 1.5 uM after 24 hrs by annexin-V/propidium iodide staining-based flow cytometry; assay type: functional
[22] = Antitumor activity against human U937 cells xenografted in athymic nude mouse assessed as tumor growth inhibition at 120 mg/kg/day, po after 16 days; assay type: functional; details: U-937, 384 h, read-out: TGI
[23] = Antitumor activity against human U937 cells xenografted in athymic nude mouse at 120 mg/kg/day, po after 16 days relative to control; assay type: functional, U-937
[24] = system: Mus musculus; test: Toxicity in athymic nude mouse xenografted with human U937 cells assessed as weight loss at 120 mg/kg/day, po after 16 days; assay type: organism-based, U-937; set-up: route oral; details: in vivo, 384 h
[25] = system: Mus musculus; test: Toxicity in athymic nude mouse xenografted with human U937 cells assessed as toxic sign in liver at 120 mg/kg/day, po after 16 days; assay type: organism-based, U-937; set-up: route oral; details: in vivo, 384 h
[26] = system: Mus musculus; test: Toxicity in athymic nude mouse xenografted with human U937 cells assessed as toxic sign in spleen at 120 mg/kg/day, po after 16 days; assay type: organism-based, U-937; set-up: route oral; details: in vivo, 384 h
[27] = molecular target: T2, Histone deacetylase 8 (Homo sapiens, UniProt Q9BY41); test: Inhibition of HDAC8 (unknown origin)
T2 sequence (Q9BY41 whole entry): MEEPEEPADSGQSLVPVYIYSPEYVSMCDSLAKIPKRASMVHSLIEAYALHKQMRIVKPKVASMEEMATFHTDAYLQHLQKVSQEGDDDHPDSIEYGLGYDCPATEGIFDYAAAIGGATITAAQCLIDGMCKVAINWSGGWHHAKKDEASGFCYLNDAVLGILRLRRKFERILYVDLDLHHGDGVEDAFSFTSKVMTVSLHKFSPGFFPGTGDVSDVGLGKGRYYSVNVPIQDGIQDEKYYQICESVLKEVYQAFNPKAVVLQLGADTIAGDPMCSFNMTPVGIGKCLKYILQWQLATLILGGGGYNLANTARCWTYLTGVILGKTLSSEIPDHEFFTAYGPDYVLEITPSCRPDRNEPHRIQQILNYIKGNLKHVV

[28] = molecular target: Histone deacetylase 4 (Homo sapiens, UniProt P56524); test: Inhibition of HDAC4 (unknown origin)
Histone deacetylase 4, sequence (P56524 whole entry): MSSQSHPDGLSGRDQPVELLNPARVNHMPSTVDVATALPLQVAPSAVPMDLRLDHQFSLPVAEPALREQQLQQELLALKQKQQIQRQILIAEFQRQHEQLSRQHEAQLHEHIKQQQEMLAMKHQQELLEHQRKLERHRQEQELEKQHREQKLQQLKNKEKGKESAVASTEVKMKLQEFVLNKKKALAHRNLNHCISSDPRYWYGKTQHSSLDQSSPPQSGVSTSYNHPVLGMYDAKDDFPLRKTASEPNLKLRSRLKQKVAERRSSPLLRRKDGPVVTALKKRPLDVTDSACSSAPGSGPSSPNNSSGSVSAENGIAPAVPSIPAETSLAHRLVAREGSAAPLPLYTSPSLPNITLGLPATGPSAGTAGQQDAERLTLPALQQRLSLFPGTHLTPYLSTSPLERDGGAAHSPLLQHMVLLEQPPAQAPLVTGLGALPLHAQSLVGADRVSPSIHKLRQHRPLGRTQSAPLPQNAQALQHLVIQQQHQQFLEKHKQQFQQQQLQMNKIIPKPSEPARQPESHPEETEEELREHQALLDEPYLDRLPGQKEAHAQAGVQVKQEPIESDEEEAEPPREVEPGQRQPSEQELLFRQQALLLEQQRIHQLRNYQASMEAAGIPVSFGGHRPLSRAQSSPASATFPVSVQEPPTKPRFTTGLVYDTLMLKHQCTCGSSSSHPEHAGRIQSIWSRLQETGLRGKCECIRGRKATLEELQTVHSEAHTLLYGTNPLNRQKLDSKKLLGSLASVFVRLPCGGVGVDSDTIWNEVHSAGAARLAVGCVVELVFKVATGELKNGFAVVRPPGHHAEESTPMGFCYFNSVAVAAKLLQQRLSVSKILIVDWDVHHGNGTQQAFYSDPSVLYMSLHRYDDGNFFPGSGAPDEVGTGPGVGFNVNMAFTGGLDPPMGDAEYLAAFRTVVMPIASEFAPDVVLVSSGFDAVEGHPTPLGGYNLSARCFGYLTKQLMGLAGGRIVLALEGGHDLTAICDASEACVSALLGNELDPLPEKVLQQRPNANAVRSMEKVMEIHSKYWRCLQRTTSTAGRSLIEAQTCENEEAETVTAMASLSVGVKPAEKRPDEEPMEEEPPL

[29] = molecular target: T3, Histone deacetylase 11 (Homo sapiens, UniProt Q96DB2); test: Inhibition of HDAC11 (unknown origin)
T3 sequence (Q96DB2 whole entry): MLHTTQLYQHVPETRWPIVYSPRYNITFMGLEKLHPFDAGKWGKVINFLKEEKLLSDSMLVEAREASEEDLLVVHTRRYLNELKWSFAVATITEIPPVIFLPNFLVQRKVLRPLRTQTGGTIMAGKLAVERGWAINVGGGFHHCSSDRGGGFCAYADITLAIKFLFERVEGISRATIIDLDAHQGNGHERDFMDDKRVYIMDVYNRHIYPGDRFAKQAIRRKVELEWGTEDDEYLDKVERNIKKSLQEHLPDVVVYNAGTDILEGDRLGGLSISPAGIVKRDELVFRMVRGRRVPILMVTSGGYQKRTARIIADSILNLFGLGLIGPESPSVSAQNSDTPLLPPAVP

O=C(/C=C/c1cccc(OC[C@H](Cc2c[nH]c3ccccc23)NC(=O)c2ccccc2)c1)NO
IC50 [1]: 421.4 nM
pIC50 [2]: 5.91

O=C(/C=C/c1cccc(OC[C@H](Cc2c[nH]c3ccccc23)NC(=O)c2ccc(Cl)cc2)c1)NO
pIC50 [2]: 5.76

CC(C)(C)OC(=O)N[C@H](COc1cccc(/C=C/C(=O)NO)c1)Cc1c[nH]c2ccccc12
IC50 [1]: 917.4 nM
pIC50 [2]: 5.38

CC(C)(C)OC(=O)NCC(=O)N[C@H](COc1cccc(/C=C/C(=O)NO)c1)Cc1c[nH]c2ccccc12
IC50 [1]: 886.4 nM
pIC50 [2]: 5.05

CC(NC(=O)OC(C)(C)C)C(=O)N[C@H](COc1cccc(/C=C/C(=O)NO)c1)Cc1c[nH]c2ccccc12 (stereo partly specified)
IC50 [1]: 861.5 nM
pIC50 [2]: 5.18

O=C(/C=C/c1cccc(OC[C@H](Cc2c[nH]c3ccccc23)NC(=O)Cc2ccccc2)c1)NO
IC50 [1]: 447.7 nM
pIC50 [2]: 5.18

O=C(/C=C/c1cccc(OC[C@H](Cc2c[nH]c3ccccc23)NC(=O)CCc2ccccc2)c1)NO
IC50 [1]: 464.5 nM
pIC50 [2]: 5.21

O=C(/C=C/c1cccc(OC[C@H](Cc2c[nH]c3ccccc23)NC(=O)CCCc2ccccc2)c1)NO
IC50 [1]: 498.6 nM
pIC50 [2]: 5.44

O=C(/C=C/c1cccc(OC[C@H](Cc2c[nH]c3ccccc23)NC(=O)c2ccc(Br)cc2)c1)NO
IC50 [1]: 692.4 nM
pIC50 [2]: 5.86

COc1ccc(C(=O)N[C@H](COc2cccc(/C=C/C(=O)NO)c2)Cc2c[nH]c3ccccc23)cc1
IC50 [1]: 191.2 nM
pIC50 [2]: 6.39
pIC50 [3]: 6.44
pIC50 [4]: 5.46
pIC50 [5]: 6.42
pIC50 [6]: 5.97
pIC50 [7]: 5.43
pIC50 [8]: 6.01
pIC50 [9]: 5.41
pIC50 [10]: 5.60
pIC50 [11]: 5.64
pIC50 [12]: 5.35
pIC50 [13]: 6.66
pIC50 [14]: 6.06
pIC50 [15]: 6.65
pIC50 [16]: 7.03
Activity [17]: 11.54%
Activity [18]: 23.99%
Activity [19]: 6.92%
viability at 1.5 µM ([20]; Homo sapiens, U-937, 24 h, read-out: Activity): 57.5%
Activity [21]: 35.53%
inhibition in vivo at 120 mg/kg/day [22]: 42.7%
T/C [23]: 56.4%
Activity [24]: Non-toxic
Activity [25]: Non-toxic
Activity [26]: Non-toxic

Cc1ccc(C(=O)N[C@H](COc2cccc(/C=C/C(=O)NO)c2)Cc2c[nH]c3ccccc23)cc1
IC50 [1]: 218.7 nM
pIC50 [2]: 6.41

O=C(/C=C/c1cccc(OC[C@H](Cc2c[nH]c3ccccc23)NC(=O)c2ccccc2Cl)c1)NO
IC50 [1]: 81.9 nM
pIC50 [2]: 6.13

O=C(/C=C/c1cccc(OC[C@H](Cc2c[nH]c3ccccc23)NC(=O)c2cccc(Cl)c2)c1)NO
IC50 [1]: 357.9 nM
pIC50 [2]: 5.51

O=C(/C=C/c1cccc(OC[C@H](Cc2c[nH]c3ccccc23)NC(=O)c2ccc(Cl)cc2Cl)c1)NO
IC50 [1]: 258.9 nM
pIC50 [2]: 5.60

O=C(/C=C/c1cccc(OC[C@H](Cc2c[nH]c3ccccc23)NC(=O)c2cc(Cl)cc(Cl)c2)c1)NO
IC50 [1]: 779 nM
pIC50 [2]: 5.52

COc1cccc(C(=O)N[C@H](COc2cccc(/C=C/C(=O)NO)c2)Cc2c[nH]c3ccccc23)c1
IC50 [1]: 67.4 nM
pIC50 [2]: 5.51

COc1ccccc1C(=O)N[C@H](COc1cccc(/C=C/C(=O)NO)c1)Cc1c[nH]c2ccccc12
IC50 [1]: 38.5 nM
pIC50 [2]: 5.84
pIC50 [13]: 7.48
pIC50 [14]: 7.19
pIC50 [15]: 7.54
pIC50 [16]: 7.62
pIC50 [27]: 7.06
pIC50 [28]: 6.36
pIC50 [29]: 7.28

O=C(CCCCCCC(=O)Nc1ccccc1)NO [VORINOSTAT]
pIC50 [9]: 5.45
Activity [17]: 6.65%
Activity [18]: 14.57%
Activity [19]: 6.16%
Activity [20]: 72.62%
Activity [21]: 21.22%
T/C [23]: 71.7%

Source: ChEMBL document CHEMBL3351443, “Development of 3-hydroxycinnamamide-based HDAC inhibitors with potent in vitro and in vivo anti-tumor activity” (Eur J Med Chem, 2015)
